Consider three substances from PMC3824214, “A Novel Factor Xa-Inhibiting Peptide from Centipedes Venom” (International Journal of Peptide Research and Therapeutics, 2013).

Values joined by “and” are separate entries in the source; they are usually repeats but may differ in a detail not shown here. Identical values can stand only once. Like-named read-outs stand apart in the source and are kept apart here. Marks after values point to notes of the source that are not given here. Some results are limits rather than exact numbers.

The target of one data set is T1, human FXa (Homo sapiens, UniProt P00742).
T1 construct: Purified human FXa; purchased HYPHEN BioMed (Neuvile sur Oise, France)
T1 sequence (P00742 235-488 limits assumed): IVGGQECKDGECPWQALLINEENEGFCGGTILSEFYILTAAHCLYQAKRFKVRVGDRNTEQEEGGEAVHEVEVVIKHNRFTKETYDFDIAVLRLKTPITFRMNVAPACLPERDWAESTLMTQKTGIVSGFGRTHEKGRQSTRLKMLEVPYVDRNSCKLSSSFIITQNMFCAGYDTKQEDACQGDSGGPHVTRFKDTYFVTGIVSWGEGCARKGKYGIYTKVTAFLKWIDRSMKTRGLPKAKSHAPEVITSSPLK
T1 sequence (P00742 41-179 partner limits assumed): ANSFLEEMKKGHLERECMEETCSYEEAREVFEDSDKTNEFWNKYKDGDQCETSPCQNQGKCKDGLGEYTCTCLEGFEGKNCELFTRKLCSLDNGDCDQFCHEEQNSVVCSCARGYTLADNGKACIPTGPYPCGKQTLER
The data set can be described thus: FXa inhibition assay, chromogenic substrate S-2222. It counts as biochemical. From the text:
Sephadex G-50 was obtained from Pharmacia (Uppsala, Sweden). Purified human FXa and chromogenic substrate of FXa (S2222) were purchased from HYPHEN BioMed (Neuvile sur Oise, France). Mice of both sexes were from Qinglongshan animal center (Nanjing, Jiangsu Province, China). All the animal protocols were approved by the Animal Care and Use Committee at China Pharmaceutical University. All other chemicals and reagents were at analytical grade.
Chromogenic substrate method was used to measure the FXa-inhibiting activity. Inhibition was determined by FXa residual activity on the chromogenic substrate BIOPHEN CS-11 (S-2222) (22), which liberates the chromophoric group pNA (p-nitroaniline) (van Wijk and Smit [1984]). Different concentrations of the peptide (5–60 mg/ml) were incubated with FXa for 30 min at 37 °C in PBS (pH 8.34). The reaction was initiated by adding the substrate into the peptide solution (Ibrahima et al. [2001]). The absorbance at 405 nm was recorded every 0.5 min in 5 min. In A–t curve, the curve slope was considered as reaction rate (v).
Inhibition rate(%)=V0- Vi/V0×100%, V0 is the rate of PBS (pH 8.34, model control), and Vi is the rate of peptide.

Data set [1] has as its system normal citrated PPP (platelet poor plasma). The data set can be described thus: in vitro PT clotting assay. As to conditions: sample diluted in PBS pH 8.34, mouse PPP, 3 min at 37 °C, triplicates, mean ± SE. It counts as biochemical, ICR mice. The procedure: (§1) Blood was drawn by Eyeball from ICR mice. The blood was separately centrifuged at 2,500×g for 10 min to obtain platelet poor plasma (PPP). For the in vitro aPTT assay, normal citrated PPP (50 μl) was incubated with sample solution (8, 6, 4, 2, 1 mg/ml, previously diluted in PBS, pH 8.34, 50 μl) and 100 μl aPTT reagent for 3 min at 37 °C. Clotting time was immediately recorded after the addition of 100 μl of 20 mM CaCl2. For the in vitro PT assay, normal citrated PPP (25 μl) was incubated with sample solution (8, 6, 4, 2, 1 mg/ml, previously diluted in PBS, pH 8.34, 25 μl) for 3 min at 37 °C. Clotting time was immediately recorded after the addition of 50 μl of PT reagent (Majdoub et al. [2009]). All coagulation assays were performed in triplicates. Heparin was used as a positive control, and PBS (pH 8.34) as model control. For ex vivo coagulation assays, samples were dissolved in saline and were intravenously injected (10 or 20 mg/kg) in ICR mice (6 animals/group). Five and 24 h after drug administration, blood was collected (drawn by eyeball), immediately centrifuged (3,000 rpm, 15 min), and the plasma was used to measure the aPTT and PT as previously described (Batista et al. [2010]).

The test system of a further data set is bleeding time. The data set can be described thus: Bleeding time in vivo, tail cut. Also noted: species or system ICR mice. Conditions: for BT (bleeding time): 6 animals/group, mean ± SE, saline 315.2 s. The procedure:
The mice (both sexes, 18–22 g) were randomly divided into four groups. The samples were intravenously injected (10 or 20 mg/kg) in ICR mice (6 animals/group) once a day in four consecutive days. Fifteen minutes after the last administration (positive control after 2 h), the mice tail was marked with a tag in the distance of 3 mm to after peak, then cut in the mark. Then the tip of the tail was immersed in saline at 37 °C. Record the time from cutting the tip of the tail to stopping bleeding, the interval was called bleeding time (Kogushi et al. [2011]). Heparin was used as positive control, and 0.9 % saline as model control.

Data set [2] deals with normal citrated PPP (platelet poor plasma). It counts as biochemical, ICR mice. As to conditions: for APTT: sample diluted in PBS pH 8.34, mouse PPP, 3 min at 37 °C, triplicates, mean ± SE. On the procedure: as §1
A further data set deals with whole blood clotting. Put plainly: Whole blood clotting time in vivo, capillary glass tube method. Also noted: species or system mice. As to conditions: for CT (clotting time): six per group, mean ± SE, saline 273.2 s; for Effect on whole blood clotting time: TNGYT 10 and 20 mg/kg, heparin 20 mg/kg, versus control group, P < 0.01. On the procedure: Whole blood clotting time (CT) in mice was measured by capillary glass tube method (Li et al. [2004]). Mice (18–22 g body weight) were divided into four groups (both sexes, six per group). Two groups were received intravenous injection of 20 and 10 mg/kg body weight of the purified peptide for four consecutive days. Other groups were received normal saline and 20 mg/kg body weight of heparin (the positive control), respectively. Fifteen minutes after the last administration (positive control after 2 h), blood samples were collected through the retro-orbital plexus with a glass capillary and kept on a slide to allow for clotting. Stirring the blood with a dry needle every 30 s until needle wire can provoke a fibrous protein, when is defined as clotting time.

Data set [3] relates to plasma of treated mice (PT). Put plainly: ex vivo PT assay. It counts as in vivo, ICR mice. Conditions: for PT: ex vivo, ICR mice, 6 animals/group, mean ± SE. On the procedure: as §1
The subject of data set [4] is plasma of treated mice (aPTT). The data set can be described thus: ex vivo aPTT assay. As to conditions: for APTT: ex vivo, ICR mice, 6 animals/group, mean ± SE. It counts as in vivo, ICR mice. On the procedure: as §1
For data set [5] the following is noted: from S. subspinipes mutilans; ref Kong et al. [2013]; cited from earlier work. The text has this:
The centipede contains many bioactive components, including 5-hydroxytryptamine, histamine, lipids, polysaccharides, and various enzymes (e.g. proteinases and esterases) (Knysak et al. [1998]; Gomes et al. [1983]). They have been widely used as traditional folk medicine to treat thrombotic diseases in China (Pemberton [1999]) for several hundred years. […] Wu et al. ([2009]) found centipede acidic protein (CAP) signif ...

For Thr-Asn-Gly-Tyr-Thr (TNGYT), the “Inhibition of FXa activity” value at human FXa (60 mg/ml, 30 min at 37 °C, PBS pH 8.34, substrate S-2222, absorbance 405 nm) amounted to 59.75%. Besides, the “Inhibition rate of FXa relative to other protein/peptide FXa inhibitors” value on human FXa (versus Ac-AP-12, Amblyomin-X, Nymphal FXa inhibitor, AduNAP4) is “lower than FXa inhibitors mentioned above”. The PT in data set [1] (1 mg/ml) is 14.7 ± 0.6 s; in data set [1] (2 mg/ml), 15.3 ± 1.5 s; in data set [1] (4 mg/ml) it was 17.7 ± 0.6 s; in data set [1] (8 mg/ml, 0.9 % saline control 12.7 s) it was 23.3 s and 23.3 ± 1.5 s; in data set [3] (5 h after 10 mg/kg i.v., saline 15.7 s), 16.7 ± 0.6 s; in data set [3] (24 h after 10 mg/kg i.v., saline 17.7 s) it was 18.7 ± 1.5 s. The substance further gave a PT in data set [3] (24 h after 20 mg/kg i.v., saline 17.7 s) of 18.3 ± 0.6 s. The “BT (bleeding time)” value with bleeding time (10 mg/kg i.v. once a day, four consecutive days, 15 min after last administration) worked out at 447.5 ± 78.1 s; with bleeding time (20 mg/kg i.v. once a day, four consecutive days, 15 min after last administration) it was 549.7 ± 60.9 s. Further, the “Effect on bleeding time” value with bleeding time (10 and 20 mg/kg, versus model control, P < 0.01) is given as “significantly prolong the bleeding time”. Besides, the “Risk of bleeding relative to heparin” value in the data set with bleeding time (equal dose 20 mg/kg, inferred from bleeding time) is “lower than that of heparin”. In addition, the “Biological activity, natural vs synthesized peptide (aPTT and PT assays)” value in data set [2] (aPTT and PT assays, data in Table 1 of Supplementary Data) is given as “the same biological activity”. Besides, in data set [2] (in vitro assay, lower than heparin), the “Potency relative to heparin, fold lower” value is recorded as “at least 8 -folded”. Moreover, the APTT in data set [2] (in vitro, 1 mg/ml) is 36.7 ± 1.5 s; in data set [2] (in vitro, 2 mg/ml), 44.0 ± 2.0 s; in data set [2] (in vitro, 4 mg/ml) it was 44.0 ± 1.0 s; in data set [2] (in vitro, 8 mg/ml, 0.9 % saline control 33.3 s), 57 s and 57.0 ± 2.0 s; in data set [4] (5 h after 10 mg/kg i.v., saline 49.0 s), 59.0 ± 2.0 s; in data set [4] (5 h after 20 mg/kg i.v., saline 49.0 s), 65.7 ± 3.1 s. For the same substance, the APTT in data set [4] (24 h after 10 mg/kg i.v., saline 47.0 s) is 49.3 ± 1.5 s; in data set [4] (24 h after 20 mg/kg i.v., saline 47.0 s), 51.3 ± 2.3 s. The “Action on aPTT and PT relative to heparin” value in data set [2] (in vitro, aPTT and PT, versus heparin (1 mg/ml)) was “lower than the positive control heparin”. Also, the “CT (clotting time)” value turned out to be 389.0 ± 35.74 s in the data set on whole blood clotting (10 mg/kg i.v., four consecutive days, 15 min after last administration, mice) and 463.0 ± 48.8 s in the data set with whole blood clotting (20 mg/kg i.v., four consecutive days, 15 min after last administration, mice). In addition, the “Effect on whole blood clotting time” value with whole blood clotting was “significantly prolong whole blood clotting time”. Also, in the data set on whole blood clotting (same dose of 20 mg/kg, i.v., mice), the “Effect in prolonging the clotting time compared to heparin” value is on record as “about 50%”. Also, the “Alteration of PT ex vivo” value in data set [3] (10 or 20 mg/kg i.v., mice) was “no significant alterations were observed in the PT”. Further, the “Alteration of aPTT ex vivo” value in data set [4] (10 or 20 mg/kg i.v., 5 and 24 h, mice) is recorded as “increases in the aPTT were observed”.
With “Ser-Gln-Leu (SQL) [anti-thrombotic peptide isolated from S. subspinipes mutilans]”, in data set [5], the Anti-thrombotic activity entry is recorded as “anti-thrombotic”.
As for Heparin [reference compound], the PT in data set [1] (1 mg/ml) is >60.0** s. Also, the “BT (bleeding time)” value with bleeding time (positive control 20 mg/kg, 2 h after last administration) amounted to 804.3 ± 87.7 s. Moreover, in data set [2] (in vitro, 1 mg/ml), the APTT is on record as >60.0** s. Also, the “Effect on whole blood clotting time” value in the data set on whole blood clotting was “significantly prolong whole blood clotting time”. In addition, the “CT (clotting time)” value in the data set with whole blood clotting (positive control 20 mg/kg, 2 h after administration, mice) is on record as 718.8 ± 60.15 s.
